Legend:
Conditions in all cases: Compound Concentration 10.0 uM, Hit No
[1] = molecular target: T1, Endonuclease III-like protein 1 (Homo sapiens) (UniProt P78549);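 note: enzyme assay tracking NTHL1 cutting and release of a quenched double-stranded DNA oligo substrate, read as fluorescence at 594 nm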
T1 sequence (whole entry): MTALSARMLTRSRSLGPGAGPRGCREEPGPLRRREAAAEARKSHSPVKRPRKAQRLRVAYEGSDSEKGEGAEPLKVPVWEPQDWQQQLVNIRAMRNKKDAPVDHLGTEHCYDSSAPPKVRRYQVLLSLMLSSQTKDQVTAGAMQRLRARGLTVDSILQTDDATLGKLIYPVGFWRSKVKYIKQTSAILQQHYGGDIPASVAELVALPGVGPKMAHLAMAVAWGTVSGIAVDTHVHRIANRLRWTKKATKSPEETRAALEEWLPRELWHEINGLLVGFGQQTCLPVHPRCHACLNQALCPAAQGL
Description: Inhibition of NTHL1 by quantifying inhibition of NTHL1-mediated cleavage and dissociation of quenched duplex DNA oligonucleotides, measured as fluorescence at 594 nm.

[2] = molecular target: DNA-3-methyladenine glycosylase (Homo sapiens) (UniProt P29372);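 note: enzyme assay where MPG cuts a quenched duplex DNA oligonucleotide probe, paired with APE1 for strand incision and turnover, read as fluorescence at 594 nm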
Description: Inhibition of MPG by quantifying inhibition of MPG-mediated cleavage and dissociation of quenched duplex DNA oligonucleotides, measured as fluorescence at 594 nm. To generate a functional strand incision and increase turn-over this assay is coupled to APE1.

[3] = molecular target: Endonuclease 8-like 1 (Homo sapiens) (UniProt Q96FI4);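 note: fluorescence at 594 nm from quenched duplex DNA oligonucleotides released by NEIL1 cleavage and strand separation, reported as reduction of this enzyme activity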
Description: Inhibition of NEIL1 by quantifying inhibition of NEIL1-mediated cleavage and dissociation of quenched duplex DNA oligonucleotides, measured as fluorescence at 594 nm.

[4] = molecular target: Uracil-DNA glycosylase (Homo sapiens) (UniProt P13051);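 note: UNG excision on a quenched double-stranded DNA oligo probe, with APE1 added for strand incision and turnover, read as fluorescence at 594 nm as strands separate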
Description: Inhibition of UNG by quantifying inhibition of UNG-mediated cleavage and dissociation of quenched duplex DNA oligonucleotides, measured as fluorescence at 594 nm. To generate a functional strand incision and increase turn-over this assay is coupled to APE1.

[5] = molecular target: T2, Endonuclease 8-like 2 (Homo sapiens) (UniProt Q969S2);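 note: fluorescence at 594 nm reports NEIL2 cutting and release of a quenched double-stranded DNA oligo substrate, reduced signal read as inhibition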
T2 sequence (whole entry): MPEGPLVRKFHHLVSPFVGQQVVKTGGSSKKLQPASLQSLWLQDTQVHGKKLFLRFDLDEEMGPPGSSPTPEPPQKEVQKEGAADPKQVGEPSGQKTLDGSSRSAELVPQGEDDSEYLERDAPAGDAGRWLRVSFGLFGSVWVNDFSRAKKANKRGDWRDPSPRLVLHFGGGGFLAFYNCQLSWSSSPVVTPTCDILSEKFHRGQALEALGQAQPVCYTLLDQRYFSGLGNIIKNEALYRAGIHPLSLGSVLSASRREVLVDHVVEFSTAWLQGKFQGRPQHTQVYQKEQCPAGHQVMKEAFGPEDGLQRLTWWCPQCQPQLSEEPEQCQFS
Description: Inhibition of NEIL2 by quantifying inhibition of NEIL2-mediated cleavage and dissociation of quenched duplex DNA oligonucleotides, measured as fluorescence at 594 nm.

[6] = molecular target: T3, Single-strand selective monofunctional uracil DNA glycosylase (Homo sapiens) (UniProt Q53HV7);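 note: enzymatic SMUG1 assay coupled with APE1, reading fluorescence at 594 nm released when a quenched double-stranded DNA oligonucleotide substrate is cleaved and separated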
T3 sequence (whole entry): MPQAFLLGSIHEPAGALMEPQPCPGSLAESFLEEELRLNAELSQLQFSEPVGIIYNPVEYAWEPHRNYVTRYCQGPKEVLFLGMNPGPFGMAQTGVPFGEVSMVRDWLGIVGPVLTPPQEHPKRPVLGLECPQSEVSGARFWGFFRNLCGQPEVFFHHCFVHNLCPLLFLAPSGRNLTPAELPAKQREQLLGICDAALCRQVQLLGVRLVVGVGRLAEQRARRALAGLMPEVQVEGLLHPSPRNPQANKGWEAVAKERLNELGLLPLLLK
Description: Inhibition of SMUG1 by quantifying inhibition of SMUG1-mediated cleavage and dissociation of quenched duplex DNA oligonucleotides, measured as fluorescence at 594 nm. To generate a functional strand incision and increase turn-over this assay is coupled to APE1.

[7] = molecular target: Methyl-CpG-binding domain protein 4 (Homo sapiens) (UniProt O95243);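 note: MBD4 activity read as fluorescence at 594 nm from cleavage and release of a quenched duplex DNA oligonucleotide, with APE1 coupled to incise the strand and raise turnover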
Description: Inhibition of MBD4 by quantifying inhibition of MBD4-mediated cleavage and dissociation of quenched duplex DNA oligonucleotides, measured as fluorescence at 594 nm. To generate a functional strand incision and increase turn-over this assay is coupled to APE1.

[8] = molecular target: G/T mismatch-specific thymine DNA glycosylase (Homo sapiens) (UniProt Q13569);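 note: human TDG cleavage of quenched duplex DNA oligonucleotides coupled to APE1, strand release read as fluorescence at 594 nm, inhibition of TDG activity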
Description: Inhibition of TDG by quantifying inhibition of TDG-mediated cleavage and dissociation of quenched duplex DNA oligonucleotides, measured as fluorescence at 594 nm. To generate a functional strand incision and increase turn-over this assay is coupled to APE1.

[9] = molecular target: N-glycosylase/DNA lyase (Homo sapiens) (UniProt O15527);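 note: OGG1 cleavage of a quenched duplex DNA oligonucleotide, coupled to APE1 for strand incision, read as fluorescence at 594 nm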
N-glycosylase/DNA lyase (Homo sapiens), sequence (O15527 whole entry): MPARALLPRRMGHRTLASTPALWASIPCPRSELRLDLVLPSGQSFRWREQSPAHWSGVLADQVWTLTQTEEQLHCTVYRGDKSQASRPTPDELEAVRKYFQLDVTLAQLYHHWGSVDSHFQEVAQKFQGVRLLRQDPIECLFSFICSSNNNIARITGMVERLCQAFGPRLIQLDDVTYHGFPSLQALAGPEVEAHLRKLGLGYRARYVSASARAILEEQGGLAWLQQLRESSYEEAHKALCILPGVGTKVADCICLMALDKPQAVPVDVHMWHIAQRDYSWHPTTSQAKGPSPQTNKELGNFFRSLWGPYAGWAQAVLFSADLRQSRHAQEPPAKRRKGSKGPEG
Description: Inhibition of OGG1 by quantifying inhibition of OGG1-mediated cleavage and dissociation of quenched duplex DNA oligonucleotides, measured as fluorescence at 594 nm. To generate a functional strand incision and increase turn-over this assay is coupled to APE1.

Methyl-CpG-binding domain protein 4 (Homo sapiens), sequence (O95243 whole entry, the tested form may be a part): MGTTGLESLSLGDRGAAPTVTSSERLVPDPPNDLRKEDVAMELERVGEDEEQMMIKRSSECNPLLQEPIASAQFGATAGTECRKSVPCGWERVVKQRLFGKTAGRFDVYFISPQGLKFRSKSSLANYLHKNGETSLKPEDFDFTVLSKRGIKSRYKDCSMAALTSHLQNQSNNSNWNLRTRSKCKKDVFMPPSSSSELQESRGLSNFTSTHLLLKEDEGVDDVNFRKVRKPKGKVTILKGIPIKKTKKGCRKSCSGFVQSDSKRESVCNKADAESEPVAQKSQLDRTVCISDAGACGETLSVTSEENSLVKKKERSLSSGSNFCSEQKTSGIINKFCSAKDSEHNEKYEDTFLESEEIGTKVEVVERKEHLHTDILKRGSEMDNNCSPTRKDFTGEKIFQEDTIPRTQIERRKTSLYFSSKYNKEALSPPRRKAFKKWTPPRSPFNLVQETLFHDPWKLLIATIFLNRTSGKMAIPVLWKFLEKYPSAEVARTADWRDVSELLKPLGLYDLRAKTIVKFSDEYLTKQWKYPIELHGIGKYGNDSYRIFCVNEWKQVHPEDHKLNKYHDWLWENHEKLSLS
DNA-3-methyladenine glycosylase (Homo sapiens), sequence (P29372 whole entry): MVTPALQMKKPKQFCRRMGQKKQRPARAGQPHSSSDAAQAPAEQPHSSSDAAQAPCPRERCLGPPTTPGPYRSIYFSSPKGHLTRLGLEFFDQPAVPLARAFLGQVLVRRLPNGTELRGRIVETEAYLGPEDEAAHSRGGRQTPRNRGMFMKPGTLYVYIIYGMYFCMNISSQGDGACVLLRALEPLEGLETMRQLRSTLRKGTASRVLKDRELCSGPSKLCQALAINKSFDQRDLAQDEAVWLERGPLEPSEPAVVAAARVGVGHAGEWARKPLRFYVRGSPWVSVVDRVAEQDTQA
Uracil-DNA glycosylase (Homo sapiens), sequence (P13051 whole entry): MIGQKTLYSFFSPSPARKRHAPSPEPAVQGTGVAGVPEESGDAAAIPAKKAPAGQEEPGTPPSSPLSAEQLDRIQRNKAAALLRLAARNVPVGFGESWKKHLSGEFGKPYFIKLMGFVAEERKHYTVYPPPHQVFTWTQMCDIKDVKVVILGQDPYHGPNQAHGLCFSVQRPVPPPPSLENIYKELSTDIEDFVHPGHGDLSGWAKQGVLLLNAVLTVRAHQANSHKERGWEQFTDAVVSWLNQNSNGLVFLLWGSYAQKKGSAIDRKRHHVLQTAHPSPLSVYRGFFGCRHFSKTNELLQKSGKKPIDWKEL
G/T mismatch-specific thymine DNA glycosylase (Homo sapiens), sequence (Q13569 whole entry): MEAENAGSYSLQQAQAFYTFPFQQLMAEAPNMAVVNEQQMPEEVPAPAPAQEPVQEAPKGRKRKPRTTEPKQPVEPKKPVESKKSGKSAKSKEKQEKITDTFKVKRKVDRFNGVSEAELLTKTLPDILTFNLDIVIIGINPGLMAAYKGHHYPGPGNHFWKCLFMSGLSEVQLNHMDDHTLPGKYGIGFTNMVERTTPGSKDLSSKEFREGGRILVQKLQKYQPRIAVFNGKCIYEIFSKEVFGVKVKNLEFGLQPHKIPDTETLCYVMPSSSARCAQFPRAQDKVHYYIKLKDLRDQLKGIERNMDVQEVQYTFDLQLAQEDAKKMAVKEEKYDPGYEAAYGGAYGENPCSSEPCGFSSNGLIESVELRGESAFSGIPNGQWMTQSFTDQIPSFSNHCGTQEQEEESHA
Endonuclease 8-like 1 (Homo sapiens), sequence (Q96FI4 whole entry): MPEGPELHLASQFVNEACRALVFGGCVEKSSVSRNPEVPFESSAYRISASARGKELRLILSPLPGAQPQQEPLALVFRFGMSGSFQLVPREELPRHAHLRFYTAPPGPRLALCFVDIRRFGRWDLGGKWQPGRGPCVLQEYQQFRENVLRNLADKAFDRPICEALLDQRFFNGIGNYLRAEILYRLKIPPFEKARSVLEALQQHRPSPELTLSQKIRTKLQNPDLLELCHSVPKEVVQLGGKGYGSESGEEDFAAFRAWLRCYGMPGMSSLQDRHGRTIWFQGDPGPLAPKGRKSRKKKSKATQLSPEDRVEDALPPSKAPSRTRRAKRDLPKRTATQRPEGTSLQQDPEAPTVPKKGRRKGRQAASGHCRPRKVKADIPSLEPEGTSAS

| Compound | inhibition [1] | inhibition [2] | inhibition [3] | inhibition [4] | inhibition [5] | inhibition [6] | inhibition [7] | inhibition [8] | inhibition [9] |
| --- | --- | --- | --- | --- | --- | --- | --- | --- | --- |
| CC(C)(C)NCC(O)COc1cccc2[nH]c(=O)[nH]c12 (stereo not drawn) | -6.87% | 4.34% | 3.06% | -8.82% | 10.5% | 12.3% | 12.3% | 5.99% | -2.11% |
| CN1CCC(=C2c3ccccc3CC(=O)c3sccc32)CC1 | -2.47% | -7.46% | 8.25% |  | 2.26% | -4.83% | -9.08% | 2.08% | -5.18% |
| Cn1c(=O)n(CCCO)c(=O)c2c1nc(Oc1cccc(OC(F)(F)F)c1)n2Cc1ccc(Cl)cc1 | 8.82% | 13.8% | -2.66% | -4.54% | -7.23% | 10.3% | 26.6% | 19.9% | -1.67% |
| Cc1cc(-c2nncc3c(C(C)(C)C)c(OCc4ncnn4C)nn23)no1 | 1.39% | -9.01% | -1.32% | -3.18% | -4.17% | -0.184% | -4.07% | -4.49% |  |
| CN(C)C(=O)N[C@H]1CC[C@H](CCN2CCN(c3cccc(Cl)c3Cl)CC2)CC1 | 2.66% | -7.07% | -4.8% | -3.02% | 10.2% | 1.03% | -1.19% | 14.4% | 1.62% |
| Cc1c(C(=O)NC2CCCCC2)sc2nc3ccc(N)cc3n12 | 7.79% | -4.14% | -4.65% |  | 1.76% | 8.2% | 7.24% | 11.8% | -4.66% |
| CCOC(=O)c1cnn(-c2ccc(NC(=O)C(Cl)=C(Cl)Cl)cc2)c1C(F)(F)F | 8% | 17.3% | -3.99% | 2.51% | 2.71% | 15% | 1.57% | 5.37% | -2.43% |
| OC(CN1CCC(Cc2ccc(F)cc2)CC1)c1ccc(Cl)cc1 (stereo not drawn) | 8.82% | 4.63% | 0.602% | -7.04% | -7.99% | -3.86% | -0.39% | -8.99% | -4.77% |
| CCOC(=O)c1ncn2c1CN(C)C(=O)c1cc(F)ccc1-2 | -6.87% | -3.91% | 0.389% | -9.3% | -1.48% | -0.518% | -4.21% | 9.02% | 0.398% |
| CCN(CC)CCCCC1CCN(CC(=O)N2c3ccccc3C(=O)Nc3cccnc32)CC1 | 12.2% | -8.23% | -7.47% |  | 12.7% | 1.37% | -4.84% | 10.1% | -2.09% |
| Cc1nc(C(=O)N2CCC[C@H]2Cc2nnc(-c3ccccc3)o2)c(-c2ccccc2F)s1 | 4.86% | -2.02% | 2.46% | -9.58% | -1.23% | -4.93% | -9.49% | 15% | -0.535% |
| Cc1c(C(=O)NN2CCCCC2)nn(-c2ccc(Cl)cc2Cl)c1-c1ccc(Cl)cc1 | -0.275% | 15.3% | -1.09% | 1.35% | 0.764% | 11.7% | 16.2% | 19.2% | 9% |
| CCN(CC)S(=O)(=O)Nc1cccc(-c2ccc3c(NC(=O)C4CC4)n[nH]c3c2)c1 | 9.15% | 3.86% | 9.38% | 2.23% | 5.35% | 11.9% | -2.59% | 45.5% | -4.92% |
| CC1(C)CC(CN2CCC(F)(CNC(=O)c3cc(Cl)cc(Cl)c3)CC2)CCO1 (stereo not drawn) | -3.56% | 9.94% | 6.23% | -1.24% | 6.78% | 8.24% | 12.4% | 12.8% |  |
| CCOC(=O)C1=C[C@]2(CC)CCCN3CCc4c(n1c1ccccc41)[C@@H]32 | 18.7% | -4.56% | 2.53% | -5.08% | 6.02% | 1% | -4.24% | -4.28% | -8.62% |
| NC(CCP(=O)(O)O)C(=O)O (racemic) | 2.66% | -3.6% | 0.0927% | -6.54% | -9.22% | 10.5% | 6.95% | 24.4% | -1.26% |
| CCCCN(CC)c1nc(C)nc2c1c(C)cn2-c1c(C)cc(C)cc1C | 19.5% | 6% | -1.24% | -4.91% | 9% | -0.0333% | -9.26% | 13.7% | 2.6% |
| COC(=O)C1=C(C)NC(C)=C(C(=O)OC(C)C)C1c1cccc2nonc12 (stereo not drawn) | 15.4% | -0.967% | 1.94% | -3.24% | -0.86% | 0.608% | 3.95% | 5.72% | -6.65% |
| CN1C[C@@H](NS(=O)(=O)N(C)C)C[C@@H]2c3cccc4c3c(cn4C)C[C@H]21 | -8.51% | 11.2% | 13.1% | -6.05% | -0.605% | 2.87% | 12.1% | 7.57% | -5.21% |
| Cc1cc(NC(=O)Nc2ccccc2)n(-c2ccccc2)n1 | 10.5% | 3.86% | 1.64% | 1.74% | 7.29% | 0.777% | 0.993% | 5.78% |  |
| CCOc1ccc(S(=O)(=O)Nc2ccc(Cl)cc2C#Cc2cnc(C(=O)O)cc2OC)c2ncccc12 | -3.26% | 14.2% | 7.43% | 7.85% |  | 5.88% | 60.3% | 51.4% | 7.9% |
| COc1ccc(Cl)cc1[C@]1(F)C(=O)Nc2cc(C(F)(F)F)ccc21 | 6.35% | -5.04% | 3.12% | -2.84% | 17% | 8.52% | -4.08% | -9.73% | 4.52% |
| Clc1cccc(-n2nnnc2NCc2ccccc2Oc2ccccn2)c1Cl | 4.7% | 12.9% | 4.75% | -1.01% | -1.88% | 6.2% | 4.1% | 0.87% | -2.45% |
| COc1ccc(-n2nc3c4ccccc4[nH]cc-3c2=O)cc1 | -6.86% | -3.24% | 0.00926% | -4.77% |  | -6.96% | 1.12% | -5.16% | -8.16% |
| Cc1cc(C(C)(C)C)c(O)c(C)c1CC1=NCCN1 | 1.92% | 3.54% | 8.25% | -7.32% | 19% | -3.38% | -7.05% | 10.8% | -1.82% |
| O=C(NCc1cccnc1OCC(F)(F)F)c1cncc(-c2ccc(Cl)cc2)c1 | 0.568% | 2% | -4.73% | -5.85% | -0.35% | -3.23% | -9.96% | 3.98% |  |
| O=C(N[C@H]1CN2CCC1CC2)c1ccc(Cl)cc1 | 15.4% | -7.18% | 1.79% | -1.13% | 3.98% | 3.71% | 12.6% | 21.4% |  |

— ChEMBL document CHEMBL5665443, “Enzyme Inhibitor Single Concentration assay results for EUbOPEN Chemogenomics Library” (2024)
